Data set [1] relates to Mus musculus. Kind of data set: Reduction in amyloid fibril elongation in po dosed 3xTg-AD transgenic mouse brain hippocampus subiculum using BAM-10 primary antibody by immunohistochemical assay relative to 3xTg-AD-non T. Type of data set: functional, organism-based.
Data set [2] is described as follows: Octanol/PBS partition co-efficient, log P of compound. Type of data set: physicochemical.
Data set [3] has as its system Mus musculus. Kind of data set: Cognitive enhancing effect in female 3xTg-AD transgenic mouse harboring human PS1M146V/APPSWE/tauP301L assessed as time spent in the target quadrant at 1 mg/kg, po for […] by Morris water maze test. It counts as functional, organism-based. As to conditions: time 8.0 weeks.
Data set [4] concerns Mus musculus. Put plainly: Cognitive enhancing effect in 3xTg-AD transgenic mouse harboring human PS1M146V/APPSWE/tauP301L assessed as number of entries to the target quadrant at 1 mg/kg, po for 8 weeks measured by Morris water maze test. It counts as functional, organism-based.
The target of data set [5] is Amyloid-beta precursor protein (Homo sapiens) (UniProt P05067). Put plainly: Inhibition of Abeta(1 to 42) peptide aggregation in immortalized human microglia with SV40 assessed as reduction in fluorescence intensity at 0.001 to 50 micromol/L and measured after 48 hrs by thiazine red staining method. It counts as tissue-based. As to conditions: dose micromol/L 0.001-50, time 48.0 hrs.
Amyloid-beta precursor protein (Homo sapiens), sequence (P05067 whole entry): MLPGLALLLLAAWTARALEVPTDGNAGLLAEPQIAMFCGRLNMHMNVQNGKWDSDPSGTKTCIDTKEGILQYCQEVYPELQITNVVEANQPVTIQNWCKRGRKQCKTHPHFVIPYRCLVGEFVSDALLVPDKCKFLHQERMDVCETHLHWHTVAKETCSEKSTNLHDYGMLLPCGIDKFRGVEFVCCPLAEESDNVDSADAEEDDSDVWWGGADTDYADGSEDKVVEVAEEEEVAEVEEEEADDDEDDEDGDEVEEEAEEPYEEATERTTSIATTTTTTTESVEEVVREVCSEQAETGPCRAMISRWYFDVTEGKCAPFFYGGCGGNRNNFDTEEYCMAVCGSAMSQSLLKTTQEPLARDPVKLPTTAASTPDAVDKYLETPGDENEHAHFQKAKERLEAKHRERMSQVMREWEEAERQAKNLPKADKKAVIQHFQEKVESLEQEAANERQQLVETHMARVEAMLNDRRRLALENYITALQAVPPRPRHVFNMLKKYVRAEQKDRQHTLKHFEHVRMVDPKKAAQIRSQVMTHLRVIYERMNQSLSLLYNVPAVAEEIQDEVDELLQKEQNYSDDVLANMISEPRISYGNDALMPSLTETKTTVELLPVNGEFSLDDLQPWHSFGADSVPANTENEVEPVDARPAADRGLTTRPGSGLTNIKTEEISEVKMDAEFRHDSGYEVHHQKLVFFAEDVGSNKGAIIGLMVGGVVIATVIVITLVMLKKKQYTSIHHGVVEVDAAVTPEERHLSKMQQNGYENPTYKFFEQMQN

Data set [6] deals with Mus musculus. Kind of data set: Reduction in amyloid beta plaques in po dosed 3xTg-AD transgenic mouse brain hippocampus subiculum using BAM-10 primary antibody by immunohistochemical assay relative to 3xTg-AD-non T. It counts as functional, organism-based.
The subject of another data set is Astrocyte. Kind of data set: Cytotoxicity against C57BL/J6 mouse astrocyte assessed as cell viability after 24 hrs by MTT assay. Type of data set: cell-based.
Data set [7] concerns Mus musculus. Put plainly: Cognitive enhancing effect in female 3xTg-AD transgenic mouse harboring human PS1M146V/APPSWE/tauP301L assessed as escape latency time at 1 mg/kg, po for 8 weeks by Morris water maze test. It counts as functional, organism-based.
In data set [8] the test system is Mus musculus. Kind of data set: Cognitive enhancing effect in female 3xTg-AD transgenic mouse harboring human PS1M146V/APPSWE/tauP301L assessed as latency to enter to the target quadrant at 1 mg/kg, po for 8 weeks by Morris water maze test. It counts as functional, organism-based.
In data set [9] the target is Amyloid-beta precursor protein (Homo sapiens) (UniProt P05067). Put plainly: Inhibition of Abeta(1 to 42) peptide aggregation in immortalized human microglia with SV40 assessed as reduction in fluorescence intensity at 1 uM and measured after 48 hrs by thiazine red staining method.
The nature of data set [10]: Ex vivo binding affinity to amyloid beta (1 to 42) in 3xTg-AD transgenic APP/PS1 mouse brain section assessed as binding constant after 40 mins by autoradiography. It counts as tissue-based.
The target in data set [11] is Amyloid-beta precursor protein (Homo sapiens) (UniProt P05067). Put plainly: Inhibition of Abeta(1 to 42) peptide aggregation in immortalized human microglia with SV40 assessed as reduction in fluorescence intensity at 1 nM and measured after 48 hrs by thiazine red staining method. Type of data set: tissue-based.

The structures appear in SMILES notation. pIC50, pKd: −log10 of the molar value. The source made the active and inactive calls. No cut-off for these calls is given here.

Consider `CSC(=S)NCCNC(=O)CCC(=O)Nc1cccc2ccccc12`, for which the inhibition entry (with Mus musculus [1]; in [5]; in [9]) was “Active” throughout. In data set [2], the logP worked out at 1.77. Moreover, the outcome in the data set with Mus musculus [3], in the data set on Mus musculus [7] and with Mus musculus [8] was inactive. The result with Mus musculus [4] and in the data set on Mus musculus [6] was Active. In addition, the pIC50 with Astrocyte was 3.71. For the same molecule, in data set [10], the pKd is 7.80.
On to `CNc1ccc(/C=C/c2ccc(OCCOCCOCCF)cc2)cc1` [FLORBETABEN], for which the pKd in data set [10] is 7.80.
On to `O=C(O)CCNC(=O)CCC(=O)Nc1cccc2ccccc12`, for which the inhibition result in data set [11] and in [5] was “Active” in each case. In addition, the pIC50 in the data set on Astrocyte is 3.06.
Regarding `O=C(O)CCCCCNC(=O)CCC(=O)Nc1cccc2ccccc12`, the inhibition entry in [11] and in data set [5] was “Active” each time. In addition, the pIC50 with Astrocyte was 3.36.

Source of the values: ChEMBL document CHEMBL4665878, “A new naphthalene derivative with anti-amyloidogenic activity as potential therapeutic agent for Alzheimer's disease” (Bioorg Med Chem, 2020).
